These results are taken from article PMC7936488, “An efficient system for intestinal on-site butyrate production using novel microbiome-derived esterases” (Journal of Biological Engineering, 2021).

One experiment concerns the target T1, SP_Est (Streptococcus pneumoniae, UniProt A0A0H2UNZ8).
T1 construct: gene estA; gene in pBAD24 under tbe1 promoter, E. coli tEc cells, not purified
T1 sequence (A0A0H2UNZ8 1-259): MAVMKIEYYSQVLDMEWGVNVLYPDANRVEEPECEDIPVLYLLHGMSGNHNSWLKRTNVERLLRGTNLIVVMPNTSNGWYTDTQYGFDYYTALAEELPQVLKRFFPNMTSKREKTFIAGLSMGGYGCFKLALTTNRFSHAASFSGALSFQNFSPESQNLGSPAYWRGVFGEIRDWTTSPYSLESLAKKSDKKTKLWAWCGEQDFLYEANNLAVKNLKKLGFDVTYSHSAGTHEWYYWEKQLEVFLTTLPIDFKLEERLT
Kind of experiment: p-nitrophenol release at […] nm, E. coli tEc cells expressing the gene vs empty vector. The class given is cell-based. The settings on record: whole-cell culture aliquot, 5 min.

A further experiment has as its target T2, LL_Tbe (Lactococcus lactis, UniProt Q9L9X0).
T2 construct: gene estA; gene in pBAD24 under tbe1 promoter, E. coli tEc cells, not purified
T2 sequence (Q9L9X0 1-258): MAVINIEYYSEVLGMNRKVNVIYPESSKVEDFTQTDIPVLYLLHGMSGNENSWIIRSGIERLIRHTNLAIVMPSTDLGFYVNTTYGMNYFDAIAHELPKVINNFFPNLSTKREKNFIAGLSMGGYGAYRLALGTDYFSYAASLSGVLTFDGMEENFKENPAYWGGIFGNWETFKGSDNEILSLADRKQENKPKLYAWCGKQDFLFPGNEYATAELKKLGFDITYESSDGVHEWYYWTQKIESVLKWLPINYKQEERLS
The description is as above. Type of experiment: cell-based. The settings on record: whole-cell culture aliquot, 5 min.

As for `CCCC(=O)Oc1ccc([N+](=O)[O-])cc1` [4-nitrophenyl butyrate], the “p-nitrophenol release at 400 nm, E. coli tEc cells expressing the gene vs empty” value at SP_Est is “the esterase of S. pneumoniae was the most potent among the four tested enzymes”; at LL_Tbe, “Tbe1 demonstrated almost identical activity to the L. lactis enzyme”.
